Experimental data as given in ChEMBL document CHEMBL5236559 (J Med Chem, 2021).

Legend:
Type in all cases: functional, cell-based
HepG2 = assay: Cytotoxicity against human HepG2 cells assessed as reduction in cell viability incubated for 48 hrs by MTT assay; details: HepG2, 48 h
SMMC-7721 = assay: Cytotoxicity against human SMMC-7721 cells assessed as reduction in cell viability incubated for 48 hrs by MTT assay; details: SMMC-7721, 48 h
HL-60 = assay: Cytotoxicity against human HL-60 cells assessed as reduction in cell viability incubated for 48 hrs by MTT assay; details: HL-60, 48 h
HeLa = assay: Cytotoxicity against human HeLa cells assessed as reduction in cell viability incubated for 48 hrs by MTT assay

Row | Structure (SMILES) | IC50 (HepG2) [µM] | IC50 (SMMC-7721) [µM] | IC50 (HL-60) [µM] | IC50 (HeLa) [µM]
1 | NCCCCCC(=O)Nc1cccc([As]2SCCCS2)c1 | 5.48 | > 10 | 1.51 | > 10
2 | NCCCCCC(=O)Nc1ccc([As]2SCCCS2)cc1 | 5.36 | > 10 | 1.25 | > 10
3 | NCCCCCC(=O)Nc1ccccc1[As]1SCCCS1 | 8.47 | > 10 | 1.64 | > 10
